Results on 18 compounds are retold here after the SangsterLogP compilation.

A short description of this data set: method code SF-AS, from DOI: 10.1021/jf00106a008. The following applies: pH 7.3.

For orientation: logD means lipophilicity at a set pH, counting ionised and neutral species. A high value points to a more lipophilic compound. With `CCCCCOn1c(=O)[nH]c(C)c(Br)c1=O`, the logD stood at 1.69.
Then `CCC(C)On1c(=O)[nH]c(C)c(Br)c1=O` (stereo not drawn), with 1.11; and `CCCOn1c(=O)[nH]c(C)c(SC#N)c1=O`, with -0.22; and `CCCCCCOn1c(=O)[nH]c(C)c(Br)c1=O`, with 2.48.
Compound `CCCCOn1c(=O)[nH]c(C)c(Br)c1=O` came in with a logD of 1.26.
Turning to `C#CCOn1c(=O)[nH]c(C)c(Br)c1=O`, the logD was -0.1.
For `Cc1[nH]c(=O)n(OC(C)C)c(=O)c1Br`, the logD came to 0.45.
Then `CCCOn1c(=O)cc(C)[nH]c1=O`, with 0.3.
Next, `CCCCCCCCOn1c(=O)[nH]c(C)c(Br)c1=O`: 3.38; `CCCOn1c(=O)[nH]c(CCC)c(Br)c1=O`: 1.73.
Compound `COn1c(=O)[nH]c(C)c(Br)c1=O` came in with a pH-dependent lipophilicity (logD) of -0.3.
`Cc1[nH]c(=O)n(OCC(C)C)c(=O)c1Br` showed a logD of 1.23.
On to `CCCOn1c(=O)[nH]c(C)c(Br)c1=O`, for which the logD is 0.76.
Next, `CCCCCCCCCCOn1c(=O)[nH]c(C)c(Br)c1=O`: 4.65; `C=CCOn1c(=O)[nH]c(C)c(Br)c1=O`: 0.32.
In the case of `CCCOn1c(=O)c(Br)c(C)n(C)c1=O`, the logD was 0.72.
Turning to `CCOn1c(=O)[nH]c(C)c(Br)c1=O`, the logD stood at 0.11.
Then `Cc1[nH]c(=O)n(OCCCl)c(=O)c1Br`, with 0.3.
